Experiments:
[1] = target: T1, purified wild type MGL (wt-MGLL 6H-11-313) (Homo sapiens, UniProt Q99685); test: MGL enzyme activity assay (4MU-B cleavage), wild type MGL; type: biochemical; conditions: 10 μM 4MU-B, 5 nM enzyme, 37° C., read-out: MGL wild type inh IC50
T1 construct: purified wild type MGL (wt-MGLL 6H-11-313)
T1 sequence (Q99685 1-303): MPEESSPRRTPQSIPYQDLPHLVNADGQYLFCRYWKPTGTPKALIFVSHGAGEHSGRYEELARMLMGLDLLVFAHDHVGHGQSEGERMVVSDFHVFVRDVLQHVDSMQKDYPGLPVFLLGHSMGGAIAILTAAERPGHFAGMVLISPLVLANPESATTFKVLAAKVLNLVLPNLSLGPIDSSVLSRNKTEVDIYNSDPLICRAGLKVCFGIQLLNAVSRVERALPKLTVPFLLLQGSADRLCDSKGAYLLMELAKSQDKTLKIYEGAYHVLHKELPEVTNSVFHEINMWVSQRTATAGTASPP
Method in brief: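 Enzyme (5 nM final) cleaved 4MU-B (10 μM final) in 20 mM PIPES pH 7.0 with 150 mM NaCl and 0.001% Tween 20. Compounds were tested at 17 to 0.0003 μM final. Fluorescence (ex 335/em 440 nm) was monitored at 37° C for 5 min, and IC50 was fitted from fractional activity versus inhibitor concentration.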

MGL = target: T2, MGL (Rattus norvegicus, UniProt Q8R431); test: 2-AG accumulation assay in rat brain homogenate; type: biochemical; conditions: compound @1 μM, read-out: Rat Brain 2AG % VehCntrl (%) @1 μM
T2 construct: one g rat brain was homogenized; from tissue; host or cells: rat brain homogenate
T2 sequence (Q8R431 1-303): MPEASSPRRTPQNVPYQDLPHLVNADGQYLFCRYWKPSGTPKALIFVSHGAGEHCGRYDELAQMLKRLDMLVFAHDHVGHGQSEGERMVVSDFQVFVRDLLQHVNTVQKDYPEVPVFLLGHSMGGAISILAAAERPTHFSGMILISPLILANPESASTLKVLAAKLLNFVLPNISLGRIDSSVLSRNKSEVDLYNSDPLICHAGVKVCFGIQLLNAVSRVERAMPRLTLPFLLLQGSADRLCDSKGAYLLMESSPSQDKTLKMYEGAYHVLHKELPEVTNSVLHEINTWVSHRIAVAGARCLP
Method in brief: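 Inhibition of rat MGL was assessed by measuring 2-AG build-up in brain homogenate. After a 15-min preincubation at 37° C., 10 mM CaCl2 was added and the 5 mL reaction ran 15 min more at 37° C. It was quenched with 6 mL 2:1 chloroform/methanol, extracted 2-AG was measured by HPLC/MS, and accumulation with compound was expressed as a percentage of vehicle.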

| Compound | IC50 [1] | 2-AG accumulation, percent of vehicle control at 1 µM (MGL) |
| --- | --- | --- |
| Cc1c(C(=O)N2CC(C3CCN(C(=O)c4nccs4)CC3)C2)sc2cc(C(F)(F)F)ccc12 [Cpd 20, 4-(1-{[3-Methyl-6-(trifluoromethyl)-1-benzothiophen-2-yl]carbonyl}azetidin-3-yl)-1-(1,3-thiazol-2-ylcarbonyl)piperidine] | < 5 nM | 728% |
| O=C(c1nccs1)N1CCC(C2CN(C(=O)c3sc4cc(C(F)(F)F)ccc4c3Cl)C2)CC1 [Cpd 29, 4-(1-{[3-Chloro-6-(trifluoromethyl)-1-benzothiophen-2-yl]carbonyl}azetidin-3-yl)-1-(1,3-thiazol-2-ylcarbonyl)piperidine] | 6 nM | 800% |
